Data on 9 molecules can be found in patent US12440529B2, “Topical Croton lechleri compositions and their use in the treatment of a bacterial colonization or primary or secondary bacterial infection of an underlying skin disorder” (ALPHYN BIOLOGICS, INC., priority 2020, dated 2025).

Assay [1] has as its system cells. The conditions noted are these: Chen, Planta Med. 60 (1994), cited from earlier work; for effect on cell proliferation: compounds obtained through extraction; for healing effects: Ecuadorian sap.
The test system of assay [2] is Enterococcus faecalis (ATCC 29212) (EFAECL). The experiment in a line: Agar Well Diffusion Assay (Kirby-Bauer disks), zone of inhibition. In kind it is cell-based. The conditions noted are these: control antibiotic K-B disk. The protocol: Isolates were subcultured the day before the Agar Well Diffusion Assay was performed. On the day of the assay, a bacterial suspension (0.08-0.12 MacFarland units) of each bacteria isolate was made in Trypticase Soy Broth (TSB), and these suspensions were used to plate a lawn of bacterial organisms on Mueller-Hinton agar or Mueller-Hinton sheep's blood agar. […] The next day, the width of the zone of growth inhibition surrounding each K-B disk was recorded (in mm). The larger the number, the greater the zone of inhibition, and the greater the inhibition of growth of the target organisms.
Therefore, all dilutions were made into DMSO and a K-B disk containing 25 uL DMSO was included in all experiments as a vehicle control.
When assessing antibiotic effects in a K-B type test, the minimum zone of inhibition for considering a positive test varies depending on the antibiotic tested with anything more than 0 mm considered positive in some cases or as much as 10 mm or more needed for others.
In general terms: In agar diffusion tests the substance spreads into inoculated agar from a disc or well.

The subject of assay [3] is MRSA strains (Mupirocin-resistant and Mupirocin-susceptible). Put plainly: In vitro MIC/MBC assay (2-fold microdilution), S. aureus strain panel. The assay is classed as cell-based, Staphylococcus aureus. The conditions noted are these: for MIC: Staphylococcus aureus. Here is the method: (§1) AB-101 was tested against an extensive variety of bacterial strains, including Mupirocin-resistant MRSA, Mupirocin-resistant MSSA, Mupirocin-susceptible MSSA, Mupirocin-susceptible MRSA, and other skin-related pathogens.
(§2) Measures included the minimum inhibitory concentration (MIC) which is the lowest concentration of AB-101 that prevents visible growth of the bacterium or pathogen, and minimum bactericidal concentration (MBC) which is the lowest concentration of an antibacterial agent required to kill a bacterium.
(§3) AB-101 Lots 01, 02 and a purified extract of taspine for MIC are compared. […] Taspine may have additional synergistic benefits to be included in the whole extract in the final product for the effective treatment of a bacterial colonization or primary or secondary bacterial infection of an underlying skin disorder.
(§4) AB-101 Lots 01, 02 and a purified extract of taspine for MBC are compared. […] Taspine may have additional synergistic benefits to be included in the whole extract in the final product for the effective treatment of bacterial colonization or primary or secondary bacterial infection of an underlying skin disorder.
(§5) Tables 26 and 27 show an assay whose setup is same as what was used for screening S. aureus and P. aeruginosa (i.e. 2-fold microdilution). The 20 strains of S. pyogenes assayed were selected from the two rounds of antibiotic screening to identify Erythromycin and Tetracycline resistant strains. […] For this feasibility study, AB-101 Lot 1 and Lot 2 was used. P. aeruginosa ATCC 27853 was tested as a positive control for AB-101 activity.

The test system of assay [4] is MSSA strains (Mupirocin-resistant and Mupirocin-susceptible; QC ATCC 29213). The assay is described as above. In kind it is cell-based, Staphylococcus aureus. Here is the method:
as §1, §2, §3, §4, §5

In the case of `Oc1cc(O)c2c(c1)O[C@H](c1ccc(O)c(O)c1)[C@@H](O)C2` [Catechin, catechin], the “effect on cell proliferation” value in assay [1] is listed as “little effect”.

Turning to `COc1ccc([C@H]2Oc3c(OC)cc(CCCO)cc3[C@@H]2CO)cc1OC` [dimethylcedrusin], the healing effects entry in assay [1] is “little healing effects”.

Take epicatechin: the “effect on cell proliferation” value in assay [1] was “little effect”.

With epigallocatechin [epigalocatechin], the “effect on cell proliferation” value in assay [1] is “slightly stimulating”.

For the molecule Gentamicin [GM], the “Zone of Inhibition” value in assay [2] is recorded as “GM 5 MM”.

Consider `Oc1cc(O)c2c(c1)O[C@H](c1cc(O)c(O)c(O)c1)[C@@H](O)C2` [gallocatechin], for which the “effect on cell proliferation” value in assay [1] was “slightly stimulating”.

For the molecule `CC1(C)S[C@@H]2[C@H](NC(=O)[C@H](N)c3ccccc3)C(=O)N2[C@H]1C(=O)O` [AMP, Ampicillin], in assay [2], the “Zone of Inhibition” value was “AMP 8 MM”.

For `COc1cccc(OC)c1C(=O)N[C@@H]1C(=O)N2[C@@H]1SC(C)(C)[C@@H]2C(=O)O` [Methicillin], the MIC – broadly, the lowest concentration found to suppress growth – in assay [3] (strain 1674607, MupirocinR) was greater than 64 µg/mL; in assay [3] (strain 1674611, MupirocinR), 64 µg/mL; in assay [3] (strain CDC 218, MupirocinR), greater than 64 µg/mL; in assay [3] (strain CDC 224, MupirocinR) it was greater than 64 µg/mL; in assay [3] (strain CDC 227, MupirocinS), 64 µg/mL; in assay [3] (strain CDC 228, MupirocinR), 64 µg/mL. Moreover, the MIC in assay [3] (strain CDC 480, MupirocinS) is 32 to 64 µg/mL; in assay [3] (strain CDC 481, MupirocinS) it was 16 to 32 µg/mL; in assay [3] (strain CDC 482, MupirocinS), 8 to 32 µg/mL; in assay [3] (strain CDC 483, MupirocinS) it was 64 µg/mL; in assay [4] (Staphylococcus aureus, strain 1674606, MupirocinR, MSSA), 2 to 8 µg/mL; in assay [4] (Staphylococcus aureus, strain 1674606; MupirocinR, MSSA), 2 to 8 µg/mL. Moreover, the MIC in assay [4] (Staphylococcus aureus, strain 1674608, MupirocinR, MSSA) fell in the range of 2 to 4 µg/mL; in assay [4] (Staphylococcus aureus, strain 1674608; MupirocinR, MSSA), 2 to 4 µg/mL; in assay [4] (Staphylococcus aureus, strain ATCC 29213, QC control), 1 to 2 µg/mL; in assay [4] (Staphylococcus aureus, strain ATCC 29213; QC control) it was 1 to 2 µg/mL; in assay [4] (Staphylococcus aureus, strain CDC 461, MupirocinS, MSSA), 4 to 8 µg/mL; in assay [4] (Staphylococcus aureus, strain CDC 461; MupirocinS, MSSA), 4 to 8 µg/mL. Besides, the MIC in assay [4] (Staphylococcus aureus, strain CDC 462, MupirocinS, MSSA) was 8 µg/mL; in assay [4] (Staphylococcus aureus, strain CDC 462; MupirocinS, MSSA), 8 µg/mL; in assay [4] (Staphylococcus aureus, strain CDC 463, MupirocinS, MSSA), 8 to 16 µg/mL; in assay [4] (Staphylococcus aureus, strain CDC 463; MupirocinS, MSSA) it was 8 to 16 µg/mL; in assay [4] (Staphylococcus aureus, strain CDC 464, MupirocinS, MSSA) it was 2 µg/mL; in assay [4] (Staphylococcus aureus, strain CDC 464; MupirocinS, MSSA), 2 µg/mL. Besides, the MIC in assay [4] (Staphylococcus aureus, strain CDC 484, MupirocinS, MSSA) was 2 µg/mL; in assay [4] (Staphylococcus aureus, strain CDC 484; MupirocinS, MSSA) it was 2 µg/mL; in assay [4] (Staphylococcus aureus, strain CDC 485, MupirocinS, MSSA), 2 to 4 µg/mL; in assay [4] (Staphylococcus aureus, strain CDC 485; MupirocinS, MSSA), 2 to 4 µg/mL.

In the case of `COc1ccc2c(=O)oc3c(OC)cc(CCN(C)C)c4c(=O)oc1c2c34` [taspine], in assay [1], the healing effects result is on record as “little healing effects”. Moreover, the “activity by MBC” value in assay [3] and in assay [4] (MSSA) was “does not have activity” in each case. In addition, the “activity by MIC” value in assay [3] (highest taspine concentration tested 10 μg/mL (50% relative to AB-101)) and in assay [4] (MSSA; highest taspine concentration tested 10 μg/mL (50% relative to AB-101)) was “does not have activity” each time.
